Reference: US5948782A, “Pharmaceutical composition containing quinoline and quinazoline derivatives and novel compounds therefor” (Takeda Chemical, priority 1992, dated 1999)

What was measured:
[1] = tested on: Rat Carrageenin Paw Edema; experiment: Rat Carrageenin Paw Edema Inhibitory Activity; type: in vivo; details: Jcl:SD rats, 50 mg/kg orally, 3 hours after carrageenin
Description: Rat Carrageenin Paw Edema Inhibitory Activity
The volume of a planter part of a right hind leg of Jcl:SD rats (male, 6 weeks old) was measured, and then suspension of a test drug (50 mg/kg) in 5% acacia was administered orally. Then water was administered additionally so that the total amount of administered liquid became 5 ml/rat. After 1 hour, a suspension (0.05 ml) containing 1% carrageenin in physiological saline was injected intradermally into the plantar to induce swelling [Winter, C. A. et al; Proc. Soc. Exp. Biol. Med., 111, 544 (1962)]. The volume of the right hind leg was measured again 3 hours after the carrageenin injection, and swelling inhibitory rate was calculated from the difference in the volumes before and after the injection.

[2] = tested on: mouse phenylquinone writhing; experiment: Analgesic Activity in Mice (phenylquinone writhing model); type: in vivo; details: Slc:ICR mice, 50 mg/kg orally, 20 minutes
Description: Analgesic Activity in Mice
A drug (50 mg/kg) suspended in 5% acacia was administered orally to Slc:ICR mice (male, 4 weeks old). After 30 minutes, a 0.02% phenylquinone solution (0.1 ml/[…]) in 5% ethanol was administered intraperitoneally. Writhing and stretching reactions for 20 minutes after the injection were calculated for each mouse to evaluate analgesic activity of the test drug [Siegmund, E. et al.; Proc. Soc. Exp. Biol. Med., 95, 729 (1957)].

[3] = tested on: IL-1β; experiment: Anti-IL-1 activity (extracellular substrates of rat cartilage cells); type: cell-based; details: 72 h, IL-1β 0.2 ng/ml, 3 days, read-out: IL-1 inhibitory activity (%)
Description: Rat cartilage cells were prepared according to the known method [Fujio Suzuki et al., Sin Seikagaku Jikken Kohza, 18, p.871-875 (1990)] and cultivated in Dulbecco's Medium containing 10% fetal bovine serum. After 8 days, various concentrations of a test drug and IL-1β (0.2 ng/ml) were added, and the cells were cultivated for additional 3 days. The amount of extracellular substrates thus produced was determined.
Although IL-1β inhibits the synthesis of extracellular substrates of cartilage cells, addition of the drug inhibits the IL-1 activity and the amount of extracellular substrates synthesized was recovered.

[4] = tested on: Antigen-responsive T cell; experiment: Antigen-Responsive T Cell Growth Inhibitory Activity (PPD-stimulated 3H-Tdr incorporation); type: cell-based, Lewis rats; details: PPD 2 μg/ml, Lewis rat T cells, read-out: Antigen-responsive T cell growth inhibitory rate (%)
Description: Antigen-Responsive T Cell Growth Inhibitory Activity
According to the method of Test Example 1, adjuvant arthritis was induced in Lewis rats (male, 7 weeks old). After 14 days, lymphonodi inguinales were excised. Then, a single-cell suspension was prepared by using RPMI-1640 medium containing 5% fetal bovine serum and then incubated at 37° C. for 1 hour in a nylon wool column. The cells were eluted from the column with the same medium. The non-adsorptive cell-fraction was used as T cells.
On the other hand, spleen cells were taken out from unsensitized Lewis rats (male, 8 to 9 weeks old) and irradiated with soft X-rays (20,000 R). To the spleen cells (1×10^5 cells/well) were added the above T cells (5×10^5 cells/well), PPD (Purified Protein Derivatives; final concentration: 2 μg/ml) and 2% Lewis rat serum (treated at 56° C. for 30 minutes). The mixture was incubated at 37° C. for 72 hours in a 5% carbonic acid incubator. Further, ^3 H-Tdr (0.5 μCi/well) was added followed by incubation for 24 hours. The cells were recovered, and the radioactivity of ^3 H-Tdr incorporated into the cells was determined. The test drug was added to the cell suspension just before the addition of PPD, and effects on incorporation of ^3 H-Tdr into the cells were observed.

[5] = tested on: mice; experiment: Oral toxicity in mice; type: in vivo; details: 300 mg/kg administered orally to mice
Description: The compounds of the present invention have low toxicity. For example, when 300 mg/kg of the compounds prepared in Examples 36, 45, 47, 54 and 64 were administered orally to mice, no mice died. Therefore, the compounds of the present invention are useful as an anti-inflammatory agent, particularly an agent for treating arthritis producing inflammatory symptoms, in humans and other mammals.

In the case of `CCOC(=O)c1c(CSc2nc3ccccc3c(=O)[nH]2)nc2cc(OC)c(OC)cc2c1-c1ccc(OC)c(OC)c1` [Example 64, ethyl 6,7-dimethoxy-4-(3,4-dimethoxyphenyl)-2-[(3,4-dihydro-4-oxoquinazolin-2-yl)thiomethyl]quinoline-3-carboxylate], the “Swelling inhibitory rate (%)” value [1] was 36%, the “Inhibitory rate (%)” value [2] was 27% and the inhibition at 1 µM ([3]; 1 μM) was 23%. The inhibition at 10 µM ([3]; 10 μM) was 50%, the inhibition at 1 µM ([4]; 1 μM) was 53% and the inhibition at 10 µM ([4]; 10 μM) was 78%. The mortality [5] was “no mice died”.
